{
  "source": "ChEMBL document CHEMBL3272352",
  "about": "“Ergoline congeners as potential inhibitors of prolactin release. 2” (1976)",
  "data": [
    {"tested_on": "Rattus norvegicus", "experiment": "Inhibition of prolactin secretion in rat assessed as serum prolactin level at 10 ug, ip after 1 hr by radioimmunoassay relative to control", "format": "functional", "units": {"inhibition (INH)": "%"}, "values": [
      {"smiles": "CC(C)[C@H]1C(=O)N2CCC[C@H]2[C@]2(O)O[C@](NC(=O)[C@@H]3C=C4c5cccc6[nH]cc(c56)C[C@H]4N(C)C3)(C(C)C)C(=O)N12", "note": "[ERGOCORNINE]", "inhibition (INH)": 60}
    ]},
    {"tested_on": "Rattus norvegicus", "experiment": "Inhibition of prolactin secretion in rat assessed as serum prolactin level at 1 mg, ip after 1 hr by radioimmunoassay relative to control", "units": {"inhibition (INH)": "%"}, "values": [
      {"smiles": "CN(C)C1CCc2c(ccc(O)c2O)C1", "note": "(stereo not drawn)", "inhibition (INH)": 68},
      {"smiles": "CNC1CCc2c(OC)ccc(OC)c2C1", "note": "(stereo not drawn)", "inhibition (INH)": 5},
      {"smiles": "COc1ccc(OC)c2c1CCC(N)C2", "note": "(stereo not drawn)", "inhibition (INH)": 3},
      {"smiles": "CCN(CC)C(=O)CCN(C)CCc1cc(OC)c(C)cc1OC", "inhibition (INH)": 10},
      {"smiles": "CN(CCCC#N)C1CCc2ccccc2C1", "note": "(stereo not drawn)", "inhibition (INH)": 24},
      {"smiles": "COc1ccc(OC)c2c1CCC(N(C)C)C2.Cl", "note": "(stereo not drawn)", "inhibition (INH)": -3},
      {"smiles": "Br.COc1ccc(OC)c2c1CCC(N(C)CCCC#N)C2", "note": "(stereo not drawn)", "inhibition (INH)": -4},
      {"smiles": "Br.NC1CCc2c(O)ccc(O)c2C1", "note": "(stereo not drawn)", "inhibition (INH)": -9},
      {"smiles": "Br.CNC1CCc2c(O)ccc(O)c2C1", "note": "(stereo not drawn)", "inhibition (INH)": -19},
      {"smiles": "Br.CN(C)C1CCc2c(O)ccc(O)c2C1", "note": "(stereo not drawn)", "inhibition (INH)": 25},
      {"smiles": "Br.CN(CCCC#N)CCc1c[nH]c2ccccc12", "inhibition (INH)": 12},
      {"smiles": "CN1CCc2cccc3c2[C@H]1Cc1ccc(O)c(O)c1-3", "note": "[APOMORPHINE]", "inhibition (INH)": 29}
    ]}
  ]
}
